# Measured values reported in patent US8992933B2, “Methods for activating T cells and modulating an immune response” (New York University, priority 2011, dated 2015).
# B1: IL-23: cytokine (R&D Systems) (protein, UniProt Q9NPF7 20-189; P29460 23-328, looked up)
# Interleukin-23 subunit alpha: RAVPGGSSPAWTQCQQLSQKLCTLAWSAHPLVGHMDLREEGDEETTNDVPHIQCGDGCDPQGLRDNSQFCLQRIHQGLIFYEKLLGSDIFTGEPSLLPDSPVGQLHASLLGLSQLLQPEGHHWETQQIPSLSPSQPWQRLLLRFKILRSLQAFVAVAARVFAHGAATLSP
# Interleukin-12 subunit beta: IWELKKDVYVVELDWYPDAPGEMVVLTCDTPEEDGITWTLDQSSEVLGSGKTLTIQVKEFGDAGQYTCHKGGEVLSHSLLLLHKKEDGIWSTDILKDQKEPKNKTFLRCEAKNYSGRFTCWWLTTISTDLTFSVKSSRGSSDPQGVTCGAATLSAERVRGDNKEYEYSVECQEDSACPAAEESLPIEVMVDAVHKLKYENYTSSFFIRDIIKPDPPKNLQLKPLKNSRQVEVSWEYPDTWSTPHSYFSLTFCVQVQGKSKREKKDRVFTDKTSATVICRKNASISVRAQDRYYSSSWSEWASVPCS
# What was measured:
# Type in all cases: cell-based, human
# TM cells = assay: Cell viability under PI-3K/Akt inhibitor treatment; details: 1-10 μg/mL
# Description: (§1) Cells were stained as previously described (Oswald-Richter, et al., PLoS Pathogens 2007; 3: e58). For intracellular staining, T cell cultures were stimulated for 5 hours at 37° C. with PMA and Ionomycin and Golgistop (BD Biosciences). Stimulated cells were washed with PBS and stained with Fixable Viability Dye eFluor450 (eBioscience) to gate on live cells. Cells were then fixed and permeabilized by commercially available Foxp3 intracellular staining kit (eBioscience) or cytofix/cytoperm kit (BD Biosciences) as per manufacturer's protocol. Antibodies used for surface and intracellular staining included: CD45RO-[…]3), PE Cy7 or A700; […] IL-17A (IL-17)-Pacific Blue (Clone BL168), FITC or Percp Cy5.5; […]) or APC (eBioscience); […] FOXO1 rabbit monoclonal antibody; phospho-AKT ([…])-Alexa Fluor 488; Rabbit IgG isotype control-Alexa Fluor 488 (Cell Signaling, Danvers, Mass.); and CCR6-biotin (BD Biosciences). Secondary antibodies used were: Streptavidin-APC or […]5.5 (BD Biosciences), Goat anti mouse-APC (BD Biosciences), anti rabbit-Alexa 647 (Molecular Probes). All data were acquired on LSRII instrument (BD Biosciences) using FACSDiva software. Data analyses were done using Flowjo software (Treestar Inc, Ashland, Oreg.). For phospho-Akt staining, Jurkat cells were fixed with BD Cytofix buffer (BD Biosciences) pre-warmed to 37° C. for 10 minutes. […]
# [1] = tested on: resting CCR6+CD45RO+CD25- TM cells; assay: Cytokine expression in resting CCR6+ TM cells cultured with cytokines, no TCR stimulation (intracellular staining)
# Description: (§2) Peripheral Blood Mononuclear Cells (PBMCs) from healthy individuals (New York Blood Center, New York, N.Y.) were prepared using Ficoll-paque plus (GE Amersham, Uppsala, Sweden). Whole blood samples from rheumatoid arthritis patients were purchased from Bioreclamation (New York, N.Y.) and were processed similar to healthy donor blood. All healthy donor and patient samples were consented prior to purchase, were none-identifiable and approved by institutional human subjects board. CD4^+ T cells were isolated using Dynal CD4 Positive Isolation Kit (Invitrogen, Carlsbad, Calif.) directly from purified PBMCs and were >99% pure. CD4^+ T cells were sorted by FACS ARIA cell sorter (BD, San Jose, Calif.) into CD45RO^+ CD25^− memory T (TM) cells. TM cells were activated either by anti-CD3 and anti-CD28 (aCD3/aCD28) coated beads (1:4 beads:cells ratio) for 18-24 hours, or by Phorbol 12-myristate 13-acetate (PMA) and ionomycin for 4 hours and further FACS sorted based on CCR6 and IL-17 expression into CCR6^− IL-17^−, CCR6^+IL-17^+, or CCR6^+IL-17^− subsets (as determined by secretion assay labeling, see below). Sorted cells (>99% pure) were cultured in serum-free Xvivo-15 medium (Lonza, Wakersville, Md.) at 37° C. and 5% CO2 for 6-7 days prior to restimulation with PMA and ionomycin (see below). […] To determine the fold expansion, CCR6^+IL-17^+ or CCR6 IL-17^− subsets were labeled with CFSE (Molecular Probes, Eugene, Oreg.) or eFluor 670 (eBioscience, San Diego, Calif.), respectively, as previously described (Oswald-Richter, et al., PLoS Biol 2004; 2: E198). […] In the experiments using PI-3K signaling inhibitors, cells were treated with PI-3K specific inhibitor, LY294002 (EMD, Gibbstown, N.J.), or Akt specific inhibitor, AKTi-1/2 (EMD), for 2 days before PMA and Ionomycin restimulation.
# Cells were stained as previously described (Oswald-Richter, et al., PLoS Pathogens 2007; 3: e58). For intracellular staining, T cell cultures were stimulated for 5 hours at 37° C. with PMA and Ionomycin and Golgistop (BD Biosciences). Stimulated cells were washed with PBS and stained with Fixable Viability Dye eFluor450 (eBioscience) to gate on live cells. Cells were then fixed and permeabilized by commercially available Foxp3 intracellular staining kit (eBioscience) or cytofix/cytoperm kit (BD Biosciences) as per manufacturer's protocol. Antibodies used for surface and intracellular staining included: CD45RO-FITC; CD25-PE; IFN-γ-FITC (clone 4S. B3), PE Cy7 or A700; IL-4-APC or PE; IL-17A (IL-17)-Pacific Blue (Clone BL168), FITC or Percp Cy5.5; IL-10-APC (Biolegend); IL-22-PE (R&D) or APC (eBioscience); IL-21-PE (clone 22URT1, eBioscience); FOXO1 rabbit monoclonal antibody; phospho-AKT (Ser473)-Alexa Fluor 488; Rabbit IgG isotype control-Alexa Fluor 488 (Cell Signaling, Danvers, Mass.); and CCR6-biotin (BD Biosciences). Secondary antibodies used were: Streptavidin-APC or PercpCy5.5 (BD Biosciences), Goat anti mouse-APC (BD Biosciences), anti rabbit-Alexa 647 (Molecular Probes). All data were acquired on LSRII instrument (BD Biosciences) using FACSDiva software. Data analyses were done using Flowjo software (Treestar Inc, Ashland, Oreg.). For phospho-Akt staining, Jurkat cells were fixed with BD Cytofix buffer (BD Biosciences) pre-warmed to 37° C. for 10 minutes. After spinning down, the cells were permeablilzed with ice-cold BD Phosflow Perm buffer III (BD Biosciences) on ice for 30 minutes and were stained with phospho-antibody.
# CCR6+ IL-17- TM cells = assay: IL-17 induction by cytokine culture of sorted, activated CCR6+IL-17- memory T cells (intracellular staining, FACS); details: cultured with the cytokine for 6 days; IL-23 in the absence of IL-2
# Description: as §2
# Manufacturer's protocols (Miltenyi Biotec) for labeling human and mouse IL-17 secreting cells were followed. Briefly, activated T-cells were washed in cold buffer (PBS+0.5% BSA+2 mM EDTA) and labeled with IL-17 catch reagent for 5 minutes on ice. […]
# Klf2 = Klf2 mRNA by RT-qPCR in TM cells
# Description: Peripheral Blood Mononuclear Cells (PBMCs) from healthy individuals (New York Blood Center, New York, N.Y.) were prepared using Ficoll-paque plus (GE Amersham, Uppsala, Sweden). Whole blood samples from rheumatoid arthritis patients were purchased from Bioreclamation (New York, N.Y.) and were processed similar to healthy donor blood. All healthy donor and patient samples were consented prior to purchase, were none-identifiable and approved by institutional human subjects board. CD4^+ T cells were isolated using Dynal CD4 Positive Isolation Kit (Invitrogen, Carlsbad, Calif.) directly from purified PBMCs and were >99% pure. […] TM cells were activated either by anti-CD3 and anti-CD28 (aCD3/aCD28) coated beads (1:4 beads:cells ratio) for 18-24 hours, or by Phorbol 12-myristate 13-acetate (PMA) and ionomycin for 4 hours and further FACS sorted based on CCR6 and IL-17 expression into CCR6^− IL-17^−, CCR6^+IL-17^+, or CCR6^+IL-17^− subsets (as determined by secretion assay labeling, see below). […]
# Purified T cells (1×10^5) were snap frozen in liquid nitrogen for total RNA isolation. […] The extracted RNA was then reverse transcribed into cDNA and quantified using Taqman Cell to CT kit (Applied Biosystems, Carlsbad, Calif.). […] Data was acquired and analyzed on ABI 7500 sequence detection system. […]
# CCR6- TM cells [2] = assay: Cytokine expression in resting CCR6- TM cells cultured with IL-7; details: stimulated with IL-7
# Description: (§3) Peripheral Blood Mononuclear Cells (PBMCs) from healthy individuals (New York Blood Center, New York, N.Y.) were prepared using Ficoll-paque plus (GE Amersham, Uppsala, Sweden). Whole blood samples from rheumatoid arthritis patients were purchased from Bioreclamation (New York, N.Y.) and were processed similar to healthy donor blood. All healthy donor and patient samples were consented prior to purchase, were none-identifiable and approved by institutional human subjects board. CD4^+ T cells were isolated using Dynal CD4 Positive Isolation Kit (Invitrogen, Carlsbad, Calif.) directly from purified PBMCs and were >99% pure. CD4^+ T cells were sorted by FACS ARIA cell sorter (BD, San Jose, Calif.) into CD45RO^+ CD25^− memory T (TM) cells. TM cells were activated either by anti-CD3 and anti-CD28 (aCD3/aCD28) coated beads (1:4 beads:cells ratio) for 18-24 hours, or by Phorbol 12-myristate 13-acetate (PMA) and ionomycin for 4 hours and further FACS sorted based on CCR6 and IL-17 expression into CCR6^− IL-17^−, CCR6^+IL-17^+, or CCR6^+IL-17^− subsets (as determined by secretion assay labeling, see below). Sorted cells (>99% pure) were cultured in serum-free Xvivo-15 medium (Lonza, Wakersville, Md.) at 37° C. and 5% CO2 for 6-7 days prior to restimulation with PMA and ionomycin (see below). […]
# CCR6- TM cells [3] = assay: IL-17 induction by cytokine culture of sorted, activated CCR6-IL-17- memory T cells; details: cultured with the cytokine, restimulation
# Description: as §3
# CCR6+ TM cells [4] = assay: Cytokine gene expression by quantitative nuclease protection assay (qNPA); details: IL-7 stimulation
# Akt phosphorylation = assay: Intracellular phospho-Akt (Ser473) staining
# Description: as §1
# CCR6+ TM cells [5] = assay: PI-3K/Akt inhibitor treatment of IL-7-cultured CCR6+ TM cells, cytokine production after PMA and ionomycin
# Description: Peripheral Blood Mononuclear Cells (PBMCs) from healthy individuals (New York Blood Center, New York, N.Y.) were prepared using Ficoll-paque plus (GE Amersham, Uppsala, Sweden). […] All healthy donor and patient samples were consented prior to purchase, were none-identifiable and approved by institutional human subjects board. CD4^+ T cells were isolated using Dynal CD4 Positive Isolation Kit (Invitrogen, Carlsbad, Calif.) directly from purified PBMCs and were >99% pure. CD4^+ T cells were sorted by FACS ARIA cell sorter (BD, San Jose, Calif.) into CD45RO^+ CD25^− memory T (TM) cells. TM cells were activated either by anti-CD3 and anti-CD28 (aCD3/aCD28) coated beads (1:4 beads:cells ratio) for 18-24 hours, or by Phorbol 12-myristate 13-acetate (PMA) and ionomycin for 4 hours and further FACS sorted based on CCR6 and IL-17 expression into CCR6^− IL-17^−, CCR6^+IL-17^+, or CCR6^+IL-17^− subsets (as determined by secretion assay labeling, see below). Sorted cells (>99% pure) were cultured in serum-free Xvivo-15 medium (Lonza, Wakersville, Md.) at 37° C. and 5% CO2 for 6-7 days prior to restimulation with PMA and ionomycin (see below). Culture conditions included: 10 U/mL recombinant human IL-2, (BD Biosciences, San Jose, Calif.), 20 ng/mL IL-7, 20 ng/mL IL-15, or 20 ng/mL IL-23 (all from R&D Systems, Minneapolis, Minn.). […] In the experiments using PI-3K signaling inhibitors, cells were treated with PI-3K specific inhibitor, LY294002 (EMD, Gibbstown, N.J.), or Akt specific inhibitor, AKTi-1/2 (EMD), for 2 days before PMA and Ionomycin restimulation.
# Cells were stained as previously described (Oswald-Richter, et al., PLoS Pathogens 2007; 3: e58). For intracellular staining, T cell cultures were stimulated for 5 hours at 37° C. with PMA and Ionomycin and Golgistop (BD Biosciences). Stimulated cells were washed with PBS and stained with Fixable Viability Dye eFluor450 (eBioscience) to gate on live cells. Cells were then fixed and permeabilized by commercially available Foxp3 intracellular staining kit (eBioscience) or cytofix/cytoperm kit (BD Biosciences) as per manufacturer's protocol. Antibodies used for surface and intracellular staining included: CD45RO-FITC; CD25-PE; IFN-γ-FITC (clone 4S. B3), PE Cy7 or A700; IL-4-APC or PE; IL-17A (IL-17)-Pacific Blue (Clone BL168), FITC or Percp Cy5.5; IL-10-APC (Biolegend); IL-22-PE (R&D) or APC (eBioscience); IL-21-PE (clone 22URT1, eBioscience); FOXO1 rabbit monoclonal antibody; phospho-AKT (Ser473)-Alexa Fluor 488; Rabbit IgG isotype control-Alexa Fluor 488 (Cell Signaling, Danvers, Mass.); and CCR6-biotin (BD Biosciences). Secondary antibodies used were: Streptavidin-APC or PercpCy5.5 (BD Biosciences), Goat anti mouse-APC (BD Biosciences), anti rabbit-Alexa 647 (Molecular Probes). […]
# Rorc and Foxp3 = Rorc and Foxp3 mRNA by RT-qPCR in CCR6+/- cells; details: IL-7 medium 7 days, then inhibitor for 2 days
# Description: Peripheral Blood Mononuclear Cells (PBMCs) from healthy individuals (New York Blood Center, New York, N.Y.) were prepared using Ficoll-paque plus (GE Amersham, Uppsala, Sweden). Whole blood samples from rheumatoid arthritis patients were purchased from Bioreclamation (New York, N.Y.) and were processed similar to healthy donor blood. All healthy donor and patient samples were consented prior to purchase, were none-identifiable and approved by institutional human subjects board. […] Sorted cells (>99% pure) were cultured in serum-free Xvivo-15 medium (Lonza, Wakersville, Md.) at 37° C. and 5% CO2 for 6-7 days prior to restimulation with PMA and ionomycin (see below). […]). […] In the experiments using PI-3K signaling inhibitors, cells were treated with PI-3K specific inhibitor, LY294002 (EMD, Gibbstown, N.J.), or Akt specific inhibitor, AKTi-1/2 (EMD), for 2 days before PMA and Ionomycin restimulation. Purified T cells (1×10^5) were snap frozen in liquid nitrogen for total RNA isolation. […] The extracted RNA was then reverse transcribed into cDNA and quantified using Taqman Cell to CT kit (Applied Biosystems, Carlsbad, Calif.). […] Data was acquired and analyzed on ABI 7500 sequence detection system. Quantitative real-time PCR data was analyzed by normalizing Ct values of genes of interest to the Ct values of the housekeeping gene b-Actin.
# [6] = one week in IL-7, then inhibitor for 48 hours
molecule,measurement,setting,value
O=c1cc(N2CCOCC2)oc2c(-c3ccccc3)cccc12 [LY294002],cell viability,TM cells,without adversely affecting cell viability
IL-4: another γc-cytokine,IL-17/IL-22 (Th17 cytokine) expression in resting CCR6+ TM cells,[1]; stimulation with the single cytokine,did not promote Th17 cytokine production
IL-7: γc-cytokine (R&D Systems),de novo IL-17 expression in CCR6+ IL-17- T cells,CCR6+ IL-17- TM cells,induced similar levels of IL-17 expression
same,Klf2 expression in resting CCR6+ TM cells,Klf2; stimulation with IL-7 alone,decreased
same,expression of IL-21,[1]; CCR6+ or CCR6- TM cells upon stimulation with IL-7,slightly reduced
same,enhancement of IL-17 expression compared to the same cells ex vivo (day 0),[1]; IL-7 for 10 days,more than 3 fold
same,enhancement of IL-22 expression compared to the same cells ex vivo (day 0),[1]; IL-7 for 10 days,more than 3 fold
same,increase of double cytokine-producing cells (IL-22 or IFNγ co-expressed with IL-17),[1]; IL-7 stimulation,more than 5 fold
same,impact on IFNγ production,[1]; resting CCR6+ or CCR6- TM cells cultured with IL-7,almost no impact
same,IL-17 or IL-22 expression in CCR6- TM cells,CCR6- TM cells [2],failed to express IL-17 or IL-22
same,IL-17 expression in CCR6- TM cells,CCR6- TM cells [3],neither IL-7 nor IL-15 induced IL-17 expression
same,Ccl20 expression,CCR6+ TM cells [4],neither significantly induced
same,"expression of non-Th17 related cytokines (Il2, Ifng, Tnf)",CCR6+ TM cells [4],not influenced
O=c1[nH]c2ccccc2n1C1CCN(Cc2ccc(-c3nc4cc5nc[nH]c5cc4nc3-c3ccccc3)cc2)CC1 [AKTi-1/2],Klf2 message expression in aCD3/aCD28-activated CCR6+ TM cells expanded in IL-2,"Klf2; IL-2 medium 2 weeks, inhibitor for 2 days",upregulates
same,Akt phosphorylation (Ser473) in Jurkat cells,Akt phosphorylation; Jurkat T cells treated for 30 minutes,Inhibition of Akt phosphorylation
same,cytokine-dependent phosphorylation of Akt,"Akt phosphorylation; TM cells, 1-10 μg/mL",downregulated
same,IL-17 and IL-22 production induced by IL-7 from CCR6+ TM cells,"CCR6+ TM cells [5]; 5 μg/ml, Day 10",suppresses
same,expression of IFNγ,CCR6+ TM cells [5]; [6],not affected
same,expression of IL-4,CCR6+ TM cells [5]; [6],less reduced
same,γc-mediated IL-17/IL-22 induction,"CCR6+ TM cells [5]; one week in IL-7, then inhibitor for 48 hours, dose-dependent",repressed
same,Rorc and Foxp3 transcripts,Rorc and Foxp3,not affected
same,cell viability,TM cells,without adversely affecting cell viability
IL-15: γc-cytokine (R&D Systems),de novo IL-17 expression in CCR6+ IL-17- T cells,CCR6+ IL-17- TM cells,induced similar levels of IL-17 expression
same,IL-17 expression in CCR6- TM cells,CCR6- TM cells [3],neither IL-7 nor IL-15 induced IL-17 expression
B1,de novo IL-17 expression in CCR6+ IL-17- T cells,CCR6+ IL-17- TM cells,did not influence IL-17 expression
same,synergy with IL-7 to further induce IL-17 or IL-22 expression,[1]; IL-7 (20 ng/ml)+IL-23 (20 ng/ml) for 10 days,did not significantly synergize
